Measurements as given in PMC10307035, “Antiviral activity of singlet oxygen-photogenerating perylene compounds against SARS-CoV-2: Interaction with the viral envelope and photodynamic virion inactivation” (Virus Research, 2023).

Key:
[1] = parameters: method as in Magde et al., 1999; conditions: Water; λ = 514 nm; ref Magde et al., 1999; cited from earlier work
[2] = ROS generation rate / quantum yield, DPBF bleaching in methanol; format: physicochemical; conditions: for φROS (ROS generation quantum yield): in methanol, DPBF trap, 450–470 nm illumination, riboflavin as reference
Excerpt: The ROS generation rate was estimated using the spectrophotometric method, based on the absorption changes of 1,3-diphenylisobenzofuran (DPBF, Sigma Aldrich, Germany) in methanol solution. Irreversible oxidation of DPBF by singlet oxygen results in peroxide formation, and DPBF bleaching. When light of 400–450 nm was used as actinic, DPBF bleaching occurred without any photosensitizer (PS) in solution. Therefore, to study photosensitized ROS generation, we used a white MCWHLP1 LED (Thorlabs, USA) with filters to limit the radiation to the 450–470 nm range (5.5 mW/cm^2).
Spectrophotometric measurements were performed in a Qpod 2e (Quantum Northwest, USA) thermostated cuvette holder at 25 °C with magnetic stirring (500 rpm). Absorption spectra were recorded using a MayaPro spectrophotometer (Ocean Optics, USA) and a stabilized white light source with a SLS201L tungsten lamp (Thorlabs, USA). Illumination was uniform over the entire volume of the cuvette, to prevent artifacts associated with the diffusion of non-reacted components into the illuminated volume of the cuvette. In this case, the rate of irreversible bleaching of DPBF (412 nm) was the same under both continuous and pulsed irradiation with equal total irradiation time. Illumination was performed in a pulsed mode (Fig. S5A), with 1 s of illumination followed by 5 s of dark adaptation, during which the absorption spectrum of the PS-DPBF solution was recorded. Data processing was performed as previously described ([Gvozdev et al., 2020]).

[3] = Spectrofluorometric analysis of interaction with liposomes; format: physicochemical; conditions: for penetration into liposomal membranes (in words): EPC/Chol 70/30 mol% liposomes
[4] = Fluorescence quantum yield determination; format: physicochemical; conditions: in DMSO, relative to rhodamin B
Experimental: The samples’ steady-state fluorescence characteristics were measured in L-format using a Chronos DFD Fluorescence spectrometer (ISS, USA) equipped with a 300 W Cermax xenon arc lamp (ISS, USA), a concave holographic grating monochromator, and a PMT detector. The required amount of each sample was diluted in DMSO and measured in a 1-cm quartz cuvette at a constant temperature of 25 °C. The resulting data were evaluated using Vinci software (ISS, USA) and correlated to the utilized optical configuration.
Absorption spectra were measured using a high-performance Specord S 600 diode spectrophotometer (Jena Analyst, DE). The required amount of each sample was diluted in DMSO, added to 1-cm quartz cuvette, and measured within the selected absorbance spectrum range, against pure DMSO as a blank, at a constant temperature of 25 °C. The results were evaluated using WinASPECT® software (Jena Analyst, DE).
Fluorescence quantum yield was determined following a previously described protocol ([Kozma et al., 2005]; [Magde et al., 1999]; [Williams et al., 1983]). The kinetics of the incorporation of compounds into liposome membrane models was determined using steady-state fluorescence spectroscopy at a constant excitation and emission wavelength, according to the corresponding sample excitation and emission maxima. We added 50 μL of LNP suspension to 0.1 mM of the analyte in PBS, and monitored the increase of fluorescence intensity over the time range from 0 to 1400s. The preparation and characterization of the liposomal suspension is described in the supporting information (Fig. S4).
1. Supplementary material and methods
1.1. Fluorescence quantum yield (QY) determination
The steady-state fluorescence and absorption data were used for quantum yield determination. QY was determined relative to a reference compound, rhodamin B. Absorbance in the range of 0.01–0.1 was used to calculate the QY. We plotted two calibration curves of integrated emission fluorescence intensity as a function of sample absorbance. […]

[5] = ROS generation measurement with DMA trap in DMSO; format: physicochemical; conditions: for ROS generation, DMA trap, under blue light: 465–480 nm, 30 mW/cm^2, 10 min
Experimental: ROS generation was also estimated using 9,10-dimethylanthracene (DMA), another specific fluorescent singlet oxygen trap, which forms nonfluorescent 9,10-dimethylanthracene endoperoxide after ROS-mediated DMA oxidation. Compounds (0, 0.1, 1, and 10 µM) in DMSO were mixed with DMA (0.5 µM), and these solutions were irradiated for 10 min at room temperature (RT) with light-emitting diodes (LED, 465–480 nm) having approximate power density of 30 mW/cm^2 (device description in Fig. S7). DMA fluorescence intensity was measured at ex/em wavelengths of 370/432 nm in the presence or absence of α-tocopherol (3 µg/mL) as an antioxidant. Singlet oxygen generation was accompanied by a decreased fluorescence signal of the DMA probe ([Zeng et al., 2020]).

Vero cells [6] = test: Cytotoxicity assay (Cell Counting Kit-8) in Vero cells; format: cell-based, African Green Monkey; conditions: 10 µM, 48 h
Experimental: (§1) To determine the overall cytotoxicity of the tested compounds, Vero cells were cultured for 24 h in 96-well plates to form a confluent monolayer, and then were treated with the tested compounds at concentrations of 2 and 10 µM. After 48 h of cultivation in the dark at 37 °C under 5% CO2, the cell culture medium was aspirated. The potential cytotoxicity of the tested perylene derivatives was determined based on cell viability using Cell Counting Kit-8 (Dojindo Molecular Technologies, Munich, Germany) according to the manufacturer's instructions. The cell viabilities of compound-treated Vero cells were compared with those of control DMSO-treated cells. We also used the above-described protocol to assess the cytotoxicity of the selected perylene antivirals, at concentrations ranging from 0 to 10 µM, in CaCo-2 and CRFK cells.

Vero cells [7] = test: Light-induced cytotoxicity in Vero cells; format: cell-based, African Green Monkey; conditions: 0–10 µM, 465–480 nm 10 min, then 24 h in the dark
Experimental: To determine the light-induced cytotoxicity of the tested compounds, Vero cells were cultured for 24 h in 96-well plates to form a confluent monolayer, and then were treated with the tested compounds at concentrations of 0 to 10 µM. Then, the compound-treated cells were irradiated for 10 min at RT with LEDs (465–480 nm) having an approximate power density of 30 mW/cm^2 (device description in Fig. S7). As a negative control, compound-treated cells were incubated for 10 min in the dark at RT. Subsequently, both irradiated and non-irradiated cell monolayers were incubated in the dark at 37 °C for 24 h. Then, the cell culture medium was aspirated and the potential cytotoxicity of the tested perylene derivatives was determined based on cell viability using Cell Counting Kit-8 (Dojindo Molecular Technologies, Munich, Germany) according to the manufacturer's instructions.

SARS-CoV-2 = test: Photodynamic inactivation of SARS-CoV-2 virions; format: cell-based; conditions: for antiviral activity after blue light irradiation of virus-compound mixture: 465–480 nm, 30 mW/cm^2, 10 min, then 60 min at 37 °C in the dark, plaque assay
Experimental: Virus in DMEM (titer of 10^5 PFU/mL) was mixed with the compounds (0–10 µM) in a microtiter plate, in triplicate, and irradiated for 10 min at RT with LEDs (465–480 nm) having an approximate power density of 30 mW/cm^2 (device description in supplement). As a negative control, virus was incubated for 10 min in the dark at RT. Subsequently, both irradiated and non-irradiated virus samples were incubated in the dark at 37 °C for 60 min. All manipulation with the samples before and after this incubation, i.e., mixing the compound with the virus, pipetting into a microtiter plate, etc., were performed in daylight. Viral titers were determined by plaque assays (performed also in daylight) and expressed as PFU/mL, as previously described ([Stefanik et al., 2021]). To eliminate the influence of daylight on compound activity, the whole experiment, including all manipulation with samples, was performed in a dark room under red light. The virus sample was mixed with the indicated compounds at concentrations from 0 to 10 μM or 100 μM, incubated for 60 min at 37 °C and virus viability was evaluated using a plaque assay (Fig. 9A).

CRFK cells = test: Cytotoxicity assay (Cell Counting Kit-8) in CRFK cells; format: cell-based, Felis catus; conditions: up to 10 µM
Experimental: as §1

[8] = tested on: SARS-CoV-2 (Wuhan strain); test: Viral titer inhibition assay, SARS-CoV-2 in CaCo-2 cells; format: cell-based; conditions: 0–10 µM
CaCo-2 cells = test: Cytotoxicity assay (Cell Counting Kit-8) in CaCo-2 cells; format: cell-based, human; conditions: up to 10 µM
Experimental: as §1

[9] = tested on: feline infectious peritonitis virus (FIPV); format: cell-based, feline coronavirus (FCoV); conditions: 0–10 µM

SMILES	φROS (ROS generation quantum yield) [2]	penetration into liposomal membranes (in words) ([3]; 10 µM in PBS)	fluorescence quantum yield [4]	ROS generation, DMA trap, under blue light [5]	effect of blue light irradiation on cytotoxicity (Vero cells [7])	antiviral activity after blue light irradiation of virus-compound mixture (SARS-CoV-2)	other results
CCN(CC)c1ccc2c(-c3ccccc3C(=O)O)c3ccc(=[N+](CC)CC)cc-3oc2c1.[Cl-] [rhodamin B]							QYr (fluorescence quantum yield of reference) [1]: 31%
O=C(O)c1ccc(-c2ccc3c4cccc5cccc(c6cccc2c63)c54)s1 [Compound 16]	59.0 ± 1.8%	penetrated the liposomal membranes very quickly and efficiently	61%				steady-state fluorescence signal after mixing with liposomes ([3]; at 520 nm, after 1400 s, 10 µM in PBS): about 10^5 CPS
CN(C)c1ccc(C#Cc2ccc3c4cccc5cccc(c6cccc2c63)c54)cc1 [Compound 14]	7.1 ± 0.2%	slow and very gradual	8%	minimal photodynamic activities	no effect	viral titer decreased by less than an order of magnitude	photodynamic activity (DPBF trap, in words) ([2]; methanol, 450–470 nm): minimal; solubility in water (in words) [3]: poorly soluble in water; fluorescence intensity after mixing with liposomes ([3]; at 540 nm, 10 µM in PBS): 10^3 CPS; cell viability (in words) (Vero cells [6]): moderately decreased cell viability
O=c1[nH]c(=O)n([C@H]2C[C@H](O)[C@@H](CO)O2)cc1C#Cc1ccc2c3cccc4cccc(c5cccc1c52)c43 [Compound 2, 5-(perylen-3-yl)ethynyl-2′-deoxy-uridine]	20.9 ± 0.2%			significant bleaching	dramatically increased	low-nanomolar	tolerability by CRFK cells (CRFK cells): well-tolerated; ROS generation, DMA trap, in the dark or with α-tocopherol ([5]; 10 min, dark or α-tocopherol (3 µg/mL)): no/limited bleaching; anti-SARS-CoV-2 activity in CaCo-2 cells [8]: sub-micromolar; tolerability by CaCo-2 cells (CaCo-2 cells): well-tolerated; replication of FIPV in CRFK cells [9]: potently suppressed the replication; antiviral effect under red light only (SARS-CoV-2; 100 µM, dark room, red light, 60 min at 37 °C): no antiviral effect; antiviral activity under red light only (SARS-CoV-2; up to 10 µM, dark room, red light, 60 min at 37 °C): completely disappeared
